Laboratory results: ChEMBL document CHEMBL1153587, “Design, synthesis and biological evaluation of novel nitrogen and sulfur containing hetero-1,4-naphthoquinones as potent antifungal and antibacterial agents” (2009)
In brackets after ≈: the same amount, converted by molar mass.

What was measured:
Assay type in all cases: functional
[1] = tested on: Klebsiella pneumoniae; assay: Antibacterial activity against Klebsiella pneumoniae ATCC 27736 after 24 hrs by broth microdilution method
[2] = tested on: Escherichia coli; assay: Antibacterial activity against Escherichia coli after 24 hrs by broth microdilution method
[3] = tested on: Candida albicans; assay: Antifungal activity against Candida albicans after 48 hrs by broth microdilution method
[4] = tested on: Candida parapsilosis; assay: Antifungal activity against Candida parapsilosis ATCC 22019 after 48 hrs by broth microdilution method; conditions: Lodderomyces parapsilosis, ATCC 22019, 48 h
[5] = tested on: Cryptococcus neoformans; assay: Antifungal activity against Cryptococcus neoformans after 72 hrs by broth microdilution method
[6] = tested on: Trichophyton mentagrophytes; assay: Antifungal activity against sTrichophyton mentagrophytes after 96 hrs by broth microdilution method
[7] = tested on: Staphylococcus aureus; assay: Antibacterial activity against Staphylococcus aureus ATCC 25923 after 24 hrs by broth microdilution method
[8] = tested on: Aspergillus fumigatus; assay: Antifungal activity against Aspergillus fumigatus after 72 hrs by broth microdilution method
[9] = tested on: Sporothrix schenckii; assay: Antifungal activity against Sporothrix schenckii after 72 hrs by broth microdilution method

Row | Compound | MIC ([1]; ATCC 27736, 24 h) [µg/mL] | MIC [2] [µg/mL] | MIC [3] [µg/mL] | MIC [4] [µg/mL] | MIC [5] [µg/mL] | MIC [6] [µg/mL] | MIC ([7]; ATCC 25923, 24 h) [µg/mL] | MIC [8] [µg/mL] | MIC [9] [µg/mL] | MIC [1] [µg/mL] | MIC [7] [µg/mL]
1 | NC1=C(Sc2cccc3ccccc23)C(=O)c2ccccc2C1=O | 12.5 (≈ 37.7 µM) | > 50 | 25 (≈ 75.4 µM) | 50 (≈ 151 µM) | 50 (≈ 151 µM) | 25 (≈ 75.4 µM) | 12.5 (≈ 37.7 µM) | 25 (≈ 75.4 µM) | > 50 | – | –
2 | O=C1C(Cl)=C(Sc2ccccc2)C(=O)c2ccccc21 | > 50 | 12.5 (≈ 41.6 µM) | – | – | – | – | 25 (≈ 83.1 µM) | – | – | – | –
3 | O=C1C(Sc2cccc3ccccc23)=C(N(c2ccccc2)c2ccccc2)C(=O)c2ccccc21 | – | – | 25 (≈ 51.7 µM) | > 50 | > 50 | 50 (≈ 103 µM) | – | 50 (≈ 103 µM) | > 50 | – | –
4 | OC(Cn1cncn1)(Cn1cncn1)c1ccc(F)cc1F [FLUCONAZOLE] | – | – | 1 (≈ 3.27 µM) | 1 (≈ 3.27 µM) | 0.5 (≈ 1.63 µM) | 1.56 (≈ 5.09 µM) | – | 2 (≈ 6.53 µM) | 2 (≈ 6.53 µM) | – | –
5 | NC[C@H]1O[C@H](O[C@H]2[C@H](O)[C@@H](O[C@H]3O[C@H](CO)[C@@H](O)[C@H](N)[C@H]3O)[C@H](N)C[C@@H]2N)[C@H](O)[C@@H](O)[C@@H]1O [KANAMYCIN] | 32 (≈ 66 µM) | 16 (≈ 33 µM) | – | – | – | – | 2 (≈ 4.13 µM) | – | – | – | –
6 | O=C1C(Nc2ccc(O)cc2)=C(Sc2ccccc2)C(=O)c2ccccc21 | > 50 | > 50 | – | – | – | – | 50 (≈ 134 µM) | – | – | – | –
7 | COc1cccc(SC2=C(N(c3ccccc3)c3ccccc3)C(=O)c3ccccc3C2=O)c1 | 50 (≈ 108 µM) | > 50 | – | – | – | – | 25 (≈ 53.9 µM) | – | – | – | –
8 | O=C1C(Cl)=C(Nc2ccc(O)cc2)C(=O)c2ccccc21 | 6.25 (≈ 20.9 µM) | > 50 | 1.56 (≈ 5.2 µM) | 6.25 (≈ 20.9 µM) | 0.78 (≈ 2.6 µM) | 1.56 (≈ 5.2 µM) | 6.25 (≈ 20.9 µM) | 3.12 (≈ 10.4 µM) | 1.56 (≈ 5.2 µM) | – | –
9 | C[C@@H]1[C@H](O)[C@@H](C)/C=C/C=C/C=C/C=C/C=C/C=C/C=C/[C@H](O[C@@H]2O[C@H](C)[C@@H](O)[C@H](N)[C@@H]2O)C[C@@H]2O[C@](O)(C[C@@H](O)C[C@@H](O)[C@H](O)CC[C@@H](O)C[C@@H](O)CC(=O)O[C@H]1C)C[C@H](O)[C@H]2C(=O)O [AMPHOTERICIN B] | – | – | 0.39 (≈ 0.422 µM) | – | 0.78 (≈ 0.844 µM) | 1.56 (≈ 1.69 µM) | – | – | – | – | –
10 | NCC[C@H](O)C(=O)N[C@@H]1C[C@H](N)[C@@H](O[C@H]2O[C@H](CN)[C@@H](O)[C@H](O)[C@H]2O)[C@H](O)[C@H]1O[C@H]1O[C@H](CO)[C@@H](O)[C@H](N)[C@H]1O [AMIKACIN] | 1 (≈ 1.71 µM) | 1 (≈ 1.71 µM) | – | – | – | – | 16 (≈ 27.3 µM) | – | – | – | –
11 | Cn1c(N)c2ccccc2nc2c(=O)c3ccccc3c(=O)c1=2 | 50 (≈ 165 µM) | 25 (≈ 82.4 µM) | > 50 | 50 (≈ 165 µM) | 50 (≈ 165 µM) | 25 (≈ 82.4 µM) | > 50 | 25 (≈ 82.4 µM) | 25 (≈ 82.4 µM) | – | –
12 | N#Cc1ccccc1NC1=C(Cl)C(=O)c2ccccc2C1=O | – | – | 50 (≈ 162 µM) | 25 (≈ 81 µM) | 50 (≈ 162 µM) | > 50 | – | > 50 | > 50 | – | –
13 | O=C1C(Cl)=C(N(c2ccccc2)c2ccccc2)C(=O)c2ccccc21 | 25 (≈ 69.5 µM) | > 50 | 12.5 (≈ 34.7 µM) | 12.5 (≈ 34.7 µM) | 25 (≈ 69.5 µM) | 50 (≈ 139 µM) | 25 (≈ 69.5 µM) | 50 (≈ 139 µM) | 6.25 (≈ 17.4 µM) | – | –
14 | NC[C@H]1O[C@H](O[C@H]2[C@H](O)[C@@H](O[C@H]3O[C@H](CO)[C@@H](O)[C@H](N)[C@H]3O)[C@H](N)C[C@@H]2N)[C@H](N)C[C@@H]1O [TOBRAMYCIN] | 1 (≈ 2.14 µM) | 0.5 (≈ 1.07 µM) | – | – | – | – | 0.25 (≈ 0.535 µM) | – | – | – | –
15 | COc1cccc(SC2=C(N)C(=O)c3ccccc3C2=O)c1 | 12.5 (≈ 40.1 µM) | > 50 | 12.5 (≈ 40.1 µM) | 25 (≈ 80.3 µM) | 12.5 (≈ 40.1 µM) | 12.5 (≈ 40.1 µM) | 25 (≈ 80.3 µM) | 6.25 (≈ 20.1 µM) | 25 (≈ 80.3 µM) | – | –
16 | O=C1C(Cl)=C(Nc2ccccc2)C(=O)c2ccccc21 | > 50 | > 50 | > 50 | > 50 | > 50 | > 50 | > 50 | > 50 | > 50 | – | –

Row | Compound | MIC ([1]; ATCC 27736, 24 h) [µg/mL] | MIC [2] [µg/mL] | MIC [3] [µg/mL] | MIC [4] [µg/mL] | MIC [5] [µg/mL] | MIC [6] [µg/mL] | MIC ([7]; ATCC 25923, 24 h) [µg/mL] | MIC [8] [µg/mL] | MIC [9] [µg/mL] | MIC [1] [µg/mL] | MIC [7] [µg/mL]
17 | N#Cc1ccccc1NC1=C(Br)C(=O)c2ccccc2C1=O | – | – | 25 (≈ 70.8 µM) | 12.5 (≈ 35.4 µM) | 12.5 (≈ 35.4 µM) | 6.25 (≈ 17.7 µM) | – | > 50 | > 50 | – | –
18 | Clc1ccc(COC(Cn2ccnc2)c2ccc(Cl)cc2Cl)c(Cl)c1 (configuration not stated) [MICONAZOLE] | – | – | 25 (≈ 60.1 µM) | – | 12.5 (≈ 30 µM) | < 0.78 | – | 12.5 (≈ 30 µM) | – | – | –
19 | O=c1c2[nH]c3ccccc3sc=2c(=O)c2ccccc12 | > 50 | 25 (≈ 89.5 µM) | – | – | – | – | 25 (≈ 89.5 µM) | – | – | – | –
20 | NC1=C(Sc2ccccc2)C(=O)c2ccccc2C1=O | 1.56 (≈ 5.54 µM) | > 50 | 12.5 (≈ 44.4 µM) | 12.5 (≈ 44.4 µM) | 25 (≈ 88.9 µM) | 12.5 (≈ 44.4 µM) | 6.25 (≈ 22.2 µM) | 6.25 (≈ 22.2 µM) | 25 (≈ 88.9 µM) | – | –
21 | O=C1C(Sc2ccccc2)=C(N(c2ccccc2)c2ccccc2)C(=O)c2ccccc21 | 50 (≈ 115 µM) | > 50 | – | – | – | – | 50 (≈ 115 µM) | – | – | – | –
22 | N#Cc1ccccc1NC1=C(Nc2ccccc2C#N)C(=O)c2ccccc2C1=O | – | – | > 50 | 50 (≈ 128 µM) | 25 (≈ 64 µM) | > 50 | – | > 50 | > 50 | – | –
23 | O=C1C(Cl)=C(Sc2cccc3ccccc23)C(=O)c2ccccc21 | > 50 | 25 (≈ 71.3 µM) | – | – | – | – | > 50 | – | – | – | –
24 | Nc1c2ccccc2nc2c(=O)c3ccccc3c(=O)c=2n1-c1ccccc1 | – | – | 25 (≈ 68.4 µM) | 25 (≈ 68.4 µM) | 25 (≈ 68.4 µM) | 12.5 (≈ 34.2 µM) | – | > 50 | > 50 | – | –
25 | O=C1C(Nc2ccccc2)=C(Sc2ccccc2)C(=O)c2ccccc21 | 25 (≈ 69.9 µM) | > 50 | – | – | – | – | > 50 | – | – | – | –
26 | O=C1C(Nc2ccccc2)=C(Sc2cccc3ccccc23)C(=O)c2ccccc21 | – | – | 50 (≈ 123 µM) | > 50 | > 50 | > 50 | – | > 50 | > 50 | – | –
27 | GENTAMICIN | – | 0.18 | – | – | – | – | – | – | – | 0.39 | 0.78
28 | COc1cccc(SC2=C(Cl)C(=O)c3ccccc3C2=O)c1 | > 50 | 12.5 (≈ 37.8 µM) | – | – | – | – | 25 (≈ 75.6 µM) | – | – | – | –
29 | COc1ccc2[nH]c3c(=O)c4ccccc4c(=O)c=3sc2c1 | > 50 | 25 (≈ 80.8 µM) | – | – | – | – | 12.5 (≈ 40.4 µM) | – | – | – | –
30 | O=C1C(Cl)=C(NCCN2C(=O)c3ccccc3C2=O)C(=O)c2ccccc21 | 50 (≈ 131 µM) | 6.25 (≈ 16.4 µM) | – | – | – | – | 6.25 (≈ 16.4 µM) | – | – | – | –
31 | NYSTATIN | – | – | 7.8 | – | 3.5 | – | – | – | 13.2 | – | –
